Converted amounts (≈) assume the structure as drawn.
How the values were obtained:
HepG2 [1] = test: Cytotoxicity against human HepG2 cells incubated for 6 hrs by MTT assay; format: functional, cell-based; details: HepG2, 6 h
Staphylococcus aureus = test: Antibacterial activity against Staphylococcus aureus ATCC 25923 assessed as reduction in bacterial cell growth incubated for 24 hrs by two fold serial dilution; format: functional; details: ATCC 25923, 24 h
HepG2 [2] = test: Cytotoxicity against human HepG2 cells assessed as cell membrane leakage by measuring LDH released incubated for 6 hrs by spectrophotometry; format: functional; details: HepG2, 6 h
Pseudomonas aeruginosa = test: Antibacterial activity against Pseudomonas aeruginosa ATCC 27853 assessed as reduction in bacterial cell growth incubated for 24 hrs by two fold serial dilution; format: functional; details: ATCC 27853, 24 h
Escherichia coli = test: Antibacterial activity against Escherichia coli ATCC 25922 assessed as reduction in bacterial cell growth incubated for 24 hrs by two fold serial dilution; format: functional; details: ATCC 25922, 24 h
Bacillus subtilis = test: Antibacterial activity against Bacillus subtilis ATCC 6051 assessed as reduction in bacterial cell growth incubated for 24 hrs by two fold serial dilution; format: functional; details: ATCC 6051, 24 h
[3] = tested on: Mycobacteroides abscessus; test: Antimycobacterial activity against Mycobacterium abscessus ATCC 19977 assessed as reduction in bacterial cell growth incubated for 3 days by broth dilution method; format: functional; details: ATCC 19977, 72 h
[4] = tested on: Mycobacterium tuberculosis; test: Antimycobacterial activity against Mycobacterium tuberculosis H37Rv assessed as reduction in bacterial cell growth incubated for 14 days by broth dilution method; format: functional; details: 336 h

Compound	IC50 (HepG2 [1]) [mg/L]	MIC (Staphylococcus aureus) [mg/L]	MCC (HepG2 [2]) [µg/mL]	MIC (Pseudomonas aeruginosa) [mg/L]	MIC (Escherichia coli) [mg/L]	MIC (Bacillus subtilis) [mg/L]	MIC [3] [mg/L]	MIC [4] [mg/L]
CS(=N)(=O)c1ccccc1 (configuration not stated)	> 100	> 512	100	> 512	> 512	> 512		
Cc1ccc(S(=O)(=NSC(F)(F)F)N2CCCC2)cc1 (configuration not stated)		64 (≈ 197 µM)		> 512	> 512	32 (≈ 98.6 µM)		
O=S(=NSC(F)(F)F)(c1ccccc1)N1CCCC1 (configuration not stated)	15 (≈ 48.3 µM)	32 (≈ 103 µM)	0.1	512 (≈ 1650 µM)	128 (≈ 412 µM)	8 (≈ 25.8 µM)	> 64	4 to 8 (≈ 12.9 to 25.8 µM)
CCN(CC)S(=O)(=NSC(F)(F)F)c1ccc([N+](=O)[O-])cc1 (configuration not stated)		32 to 64 (≈ 89.5 to 179 µM)		> 512		16 to 32 (≈ 44.8 to 89.5 µM)	16 to 32 (≈ 44.8 to 89.5 µM)	16 to 32 (≈ 44.8 to 89.5 µM)
O=S(=NSC(F)(F)F)(c1ccccc1)c1ccccc1	90 (≈ 284 µM)	32 (≈ 101 µM)	1	256 (≈ 807 µM)	256 (≈ 807 µM)	16 (≈ 50.4 µM)	> 64	4 to 8 (≈ 12.6 to 25.2 µM)
Cc1ccc(S(=O)(=NSC(F)(F)F)N2CCCCC2)cc1 (configuration not stated)	65 (≈ 192 µM)		0.1				> 64	4 to 8 (≈ 11.8 to 23.6 µM)
CS(=O)(=NSC(F)(F)F)c1ccccc1 (configuration not stated)	15 (≈ 58.8 µM)	16 (≈ 62.7 µM)	0.1	128 (≈ 501 µM)	16 (≈ 62.7 µM)	16 (≈ 62.7 µM)	> 64	4 to 8 (≈ 15.7 to 31.3 µM)
O=[N+]([O-])c1ccc(S(=O)(=NSC(F)(F)F)N2CCCC2)cc1 (configuration not stated)		32 (≈ 90 µM)		> 512	> 512	64 (≈ 180 µM)	16 to 32 (≈ 45 to 90 µM)	16 to 32 (≈ 45 to 90 µM)
O=S(=NSC(F)(F)F)(c1ccccc1)N1CCOCC1 (configuration not stated)		32 (≈ 98 µM)		256 (≈ 784 µM)	128 (≈ 392 µM)	32 (≈ 98 µM)		
N=S(=O)(c1ccc([N+](=O)[O-])cc1)N1CCCC1 (configuration not stated)							> 64	> 64
O=[N+]([O-])c1ccc(S(=O)(=NSC(F)(F)F)N2CCOCC2)cc1 (configuration not stated)		128 to 256 (≈ 345 to 689 µM)		256 (≈ 689 µM)	128 to 256 (≈ 345 to 689 µM)	128 to 256 (≈ 345 to 689 µM)	32 to 64 (≈ 86.2 to 172 µM)	16 to 32 (≈ 43.1 to 86.2 µM)
Cc1ccc(S(=O)(=NSC(F)(F)F)N2CCOCC2)cc1 (configuration not stated)							16 to 32 (≈ 47 to 94 µM)	8 to 16 (≈ 23.5 to 47 µM)
CS(=O)(=NC(F)(F)F)c1ccccc1 (configuration not stated)	> 200	> 512		> 512	> 512	> 512		> 64
O=[N+]([O-])c1ccc(S(=O)(=NSC(F)(F)F)N2CCCCC2)cc1 (configuration not stated)		32 (≈ 86.6 µM)				64 (≈ 173 µM)	32 to 64 (≈ 86.6 to 173 µM)	> 64
N=S(=O)(c1ccccc1)N1CCOCC1 (configuration not stated)							> 64	> 64
O=S(=NC(F)(F)F)(c1ccccc1)c1ccccc1	200 (≈ 701 µM)	> 512	200	> 512	> 512	> 512		> 64

Reference: ChEMBL document CHEMBL4304836, “N-Trifluoromethylthiolated Sulfonimidamides and Sulfoximines: Anti-microbial, Anti-mycobacterial, and Cytotoxic Activity” (ACS Med Chem Lett, 2019)
